Data reported in ChEMBL document CHEMBL1201862, “PubChem BioAssay data set” (2004).
Active and inactive are the calls of the source.

Tests used:
Prothrombin = Prothrombin (Homo sapiens, UniProt P00734); test: Thrombin 1536 HTS Dose Response Confirmation. [Related pubchem assays: 1046 (Thrombin 1536 HTS; hits were confirmed in this assay)]; type: functional
HEK293 [1] = test: cells; type: functional, cell-based; settings: Homo sapiens
[2] = Trypanosoma cruzi growth suppression in host cells – NIH3T3 host cells, beta-gal luminescence, confirmation (AID 2044); type: functional, cell-based;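 note: intracellular parasites grown in NIH/3T3 mouse fibroblasts as host cells; luminescent beta-galactosidase reporter signal from transgenic T. cruzi replicating inside host cells; inhibitors lower the luminescence signal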
cells [3] = test: cells
[4] = HEK-293T viability loss after treatment – luminescence, T-cell screen hits, cytotoxicity control for TCR NF-kB inhibitor project, dose response (AID 489026); type: functional, cell-based;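 note: cells exposed to compound about 14 hours before the viability readout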
HEK293 [5] = test: inhibition of NOD1-driven NF-kB reporter – cell-based, luminescence, uHTS, primary screen (AID 1578); type: functional; settings: Homo sapiens
[6] = NIH3T3 cell viability loss – ATP luminescence, mouse fibroblasts, counter-screen, dose response (AID 2010); type: functional, cell-based;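 note: cells exposed to compound for about 90 hours before reading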
[7] = molecular target: T1, Short transient receptor potential channel 4 (Mus musculus, UniProt Q9QUQ5); test: calcium entry via TRPC4 opening agents – cell-based, HEK293 TRPC4/mu-opioid, Fluo-4 calcium, dose response (AID 434937); type: functional
T1 sequence (Q9QUQ5 whole entry): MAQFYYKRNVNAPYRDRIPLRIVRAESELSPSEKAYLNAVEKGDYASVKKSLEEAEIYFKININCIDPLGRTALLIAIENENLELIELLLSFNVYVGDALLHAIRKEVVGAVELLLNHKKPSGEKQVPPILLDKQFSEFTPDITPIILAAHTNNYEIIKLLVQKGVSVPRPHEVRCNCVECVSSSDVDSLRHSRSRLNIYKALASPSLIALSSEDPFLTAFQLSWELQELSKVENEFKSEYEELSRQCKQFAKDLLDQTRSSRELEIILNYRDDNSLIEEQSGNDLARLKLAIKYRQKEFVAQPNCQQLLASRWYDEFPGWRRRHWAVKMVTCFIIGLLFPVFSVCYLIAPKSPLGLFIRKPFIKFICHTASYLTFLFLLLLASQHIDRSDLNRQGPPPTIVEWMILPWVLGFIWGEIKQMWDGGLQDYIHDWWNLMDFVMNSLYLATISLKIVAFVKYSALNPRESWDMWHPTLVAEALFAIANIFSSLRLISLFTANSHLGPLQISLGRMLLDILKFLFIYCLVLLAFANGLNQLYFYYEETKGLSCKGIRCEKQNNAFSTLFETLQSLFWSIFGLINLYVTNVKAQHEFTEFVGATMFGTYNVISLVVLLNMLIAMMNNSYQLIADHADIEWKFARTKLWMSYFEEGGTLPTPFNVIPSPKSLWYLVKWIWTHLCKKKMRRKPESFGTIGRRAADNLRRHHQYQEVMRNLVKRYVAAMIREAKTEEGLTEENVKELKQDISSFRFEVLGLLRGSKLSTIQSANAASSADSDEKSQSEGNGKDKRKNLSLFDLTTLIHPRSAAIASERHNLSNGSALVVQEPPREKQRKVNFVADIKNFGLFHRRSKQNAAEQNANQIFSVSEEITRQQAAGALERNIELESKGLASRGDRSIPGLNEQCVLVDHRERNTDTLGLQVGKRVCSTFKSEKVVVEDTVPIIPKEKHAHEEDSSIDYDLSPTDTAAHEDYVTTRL

HEK293 [8] = test: cells; type: functional, cell-based; settings: Homo sapiens; remark: listed apart in the source
[9] = molecular target: Induced myeloid leukemia cell differentiation protein Mcl-1 (Homo sapiens, UniProt Q07820); type: functional
Chain of Induced myeloid leukemia cell differentiation protein Mcl-1 (Q07820 whole entry): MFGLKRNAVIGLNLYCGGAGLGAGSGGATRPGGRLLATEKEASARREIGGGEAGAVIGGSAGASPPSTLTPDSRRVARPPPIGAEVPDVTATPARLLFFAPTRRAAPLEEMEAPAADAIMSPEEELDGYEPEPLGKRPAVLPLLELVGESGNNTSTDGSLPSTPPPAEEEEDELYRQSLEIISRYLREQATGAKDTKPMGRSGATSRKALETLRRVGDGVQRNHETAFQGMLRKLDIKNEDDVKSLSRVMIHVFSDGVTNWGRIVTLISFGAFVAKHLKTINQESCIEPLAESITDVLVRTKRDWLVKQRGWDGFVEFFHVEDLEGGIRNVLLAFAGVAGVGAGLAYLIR

[10] = molecular target: Eukaryotic translation initiation factor 4E (Mus musculus, UniProt P63073); test: blockers of eIF4G binding by eIF4E – biochemical, TR-FRET, dose response (AID 855); type: functional;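 note: potency for disrupting eIF4E binding to eIF4GI seen as loss of FRET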
Chain of Eukaryotic translation initiation factor 4E (P63073 whole entry): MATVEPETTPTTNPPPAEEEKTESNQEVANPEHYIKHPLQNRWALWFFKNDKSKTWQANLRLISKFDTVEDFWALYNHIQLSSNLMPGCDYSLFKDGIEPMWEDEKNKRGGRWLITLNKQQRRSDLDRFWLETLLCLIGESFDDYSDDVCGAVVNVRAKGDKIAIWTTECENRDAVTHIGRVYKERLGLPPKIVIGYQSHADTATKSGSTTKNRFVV

Genome polyprotein = Genome polyprotein (dengue virus type 2, UniProt P29990); test: flavivirus cap methylation enzyme inhibition – biochemical, confirmation dose response, primary screen (AID 588689); type: functional
Chain of Genome polyprotein (P29990 2492-3391 limits assumed): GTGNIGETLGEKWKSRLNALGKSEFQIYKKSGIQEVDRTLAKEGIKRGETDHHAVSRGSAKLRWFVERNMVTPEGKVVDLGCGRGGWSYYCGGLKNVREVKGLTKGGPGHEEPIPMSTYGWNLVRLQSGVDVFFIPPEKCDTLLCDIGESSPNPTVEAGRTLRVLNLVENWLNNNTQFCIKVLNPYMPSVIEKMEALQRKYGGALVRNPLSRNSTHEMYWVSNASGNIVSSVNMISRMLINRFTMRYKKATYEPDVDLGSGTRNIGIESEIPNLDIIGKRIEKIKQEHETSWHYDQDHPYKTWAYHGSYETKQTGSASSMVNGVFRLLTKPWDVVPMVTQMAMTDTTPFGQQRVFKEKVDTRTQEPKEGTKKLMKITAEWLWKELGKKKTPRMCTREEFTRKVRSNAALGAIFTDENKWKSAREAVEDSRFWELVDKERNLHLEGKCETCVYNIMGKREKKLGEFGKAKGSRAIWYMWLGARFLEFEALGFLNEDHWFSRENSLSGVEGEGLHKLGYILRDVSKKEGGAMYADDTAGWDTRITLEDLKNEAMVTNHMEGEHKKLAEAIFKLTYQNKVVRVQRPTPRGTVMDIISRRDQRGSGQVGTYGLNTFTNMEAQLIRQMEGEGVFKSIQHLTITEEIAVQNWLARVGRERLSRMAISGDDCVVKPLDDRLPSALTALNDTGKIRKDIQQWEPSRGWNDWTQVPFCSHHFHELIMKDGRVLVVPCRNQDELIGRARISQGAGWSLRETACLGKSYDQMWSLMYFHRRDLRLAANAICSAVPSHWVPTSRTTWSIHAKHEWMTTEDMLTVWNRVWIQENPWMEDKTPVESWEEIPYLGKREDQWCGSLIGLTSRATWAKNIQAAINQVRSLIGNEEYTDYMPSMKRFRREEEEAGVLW

[11] = molecular target: T2, Corticotropin-releasing factor receptor 2/Corticotropin-releasing factor-binding protein (Homo sapiens, UniProt P24387+Q13324); test: activators of CRF receptor 2 with binding protein – uHTS hits, confirmation (AID 602473); type: functional; settings: read-out: EC50_Mean
T2 sequence (Q13324 whole entry): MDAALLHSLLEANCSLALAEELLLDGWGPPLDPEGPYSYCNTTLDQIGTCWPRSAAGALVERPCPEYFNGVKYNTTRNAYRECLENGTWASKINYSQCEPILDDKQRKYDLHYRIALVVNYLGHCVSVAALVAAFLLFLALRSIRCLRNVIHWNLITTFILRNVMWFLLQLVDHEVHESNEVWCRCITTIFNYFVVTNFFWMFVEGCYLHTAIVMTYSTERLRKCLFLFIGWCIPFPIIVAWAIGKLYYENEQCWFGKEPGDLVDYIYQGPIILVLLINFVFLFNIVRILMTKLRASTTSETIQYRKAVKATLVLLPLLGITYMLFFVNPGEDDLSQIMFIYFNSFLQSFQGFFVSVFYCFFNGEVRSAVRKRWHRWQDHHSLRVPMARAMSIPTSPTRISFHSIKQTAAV
T2 sequence (P24387 whole entry): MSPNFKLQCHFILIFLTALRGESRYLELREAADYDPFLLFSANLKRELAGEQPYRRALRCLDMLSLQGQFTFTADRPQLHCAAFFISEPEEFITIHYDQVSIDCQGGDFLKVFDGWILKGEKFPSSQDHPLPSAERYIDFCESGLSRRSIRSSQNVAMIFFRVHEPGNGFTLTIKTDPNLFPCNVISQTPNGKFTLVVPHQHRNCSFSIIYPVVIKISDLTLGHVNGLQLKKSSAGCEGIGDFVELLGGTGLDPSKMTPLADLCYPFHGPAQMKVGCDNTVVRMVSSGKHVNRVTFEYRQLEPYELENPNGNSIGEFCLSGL

cells [12] = type: functional
[13] = THP-1 cell cytotoxicity, dose response, cytotoxicity control for non-replicating M. tuberculosis project (AID 489025); type: functional
[14] = molecular target: T3, E3 ubiquitin-protein ligase XIAP (Homo sapiens, UniProt P98170); test: Counter Screen using XIAP-Bir3 for Chemical Antagonists of Bir1/2 domains of IAP-family anti-apoptotic proteins. [Related pubchem assays (depositor defined):AID1018, AID1449, AID1514, AID1638, AID1749, AID1750, AID488957, AID488963]
T3 sequence (P98170 whole entry): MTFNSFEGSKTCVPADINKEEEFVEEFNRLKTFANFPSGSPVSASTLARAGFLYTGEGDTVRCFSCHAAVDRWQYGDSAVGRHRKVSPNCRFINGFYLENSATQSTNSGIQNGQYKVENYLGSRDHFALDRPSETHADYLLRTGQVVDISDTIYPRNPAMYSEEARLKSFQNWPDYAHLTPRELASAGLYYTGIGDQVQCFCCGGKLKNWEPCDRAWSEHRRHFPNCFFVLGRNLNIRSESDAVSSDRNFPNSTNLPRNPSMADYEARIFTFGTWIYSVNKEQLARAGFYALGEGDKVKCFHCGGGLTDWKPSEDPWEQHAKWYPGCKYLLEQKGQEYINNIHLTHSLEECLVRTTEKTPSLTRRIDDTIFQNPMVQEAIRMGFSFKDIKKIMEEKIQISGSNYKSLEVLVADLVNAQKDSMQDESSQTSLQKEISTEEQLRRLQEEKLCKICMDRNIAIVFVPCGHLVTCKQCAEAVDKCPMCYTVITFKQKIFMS

[15] = molecular target: T3, E3 ubiquitin-protein ligase XIAP; test: small molecules displacing peptide from XIAP – biochemical, IAP family, fluorescence polarization (AID 1018); type: functional
[16] = molecular target: T4, Mannose-6-phosphate isomerase (Homo sapiens, UniProt P34949); test: MPI inhibition at elevated mannose 6-phosphate – biochemical, fluorescence intensity, high mannose 6-phosphate, primary screen (AID 1220)
T4 sequence (P34949 whole entry): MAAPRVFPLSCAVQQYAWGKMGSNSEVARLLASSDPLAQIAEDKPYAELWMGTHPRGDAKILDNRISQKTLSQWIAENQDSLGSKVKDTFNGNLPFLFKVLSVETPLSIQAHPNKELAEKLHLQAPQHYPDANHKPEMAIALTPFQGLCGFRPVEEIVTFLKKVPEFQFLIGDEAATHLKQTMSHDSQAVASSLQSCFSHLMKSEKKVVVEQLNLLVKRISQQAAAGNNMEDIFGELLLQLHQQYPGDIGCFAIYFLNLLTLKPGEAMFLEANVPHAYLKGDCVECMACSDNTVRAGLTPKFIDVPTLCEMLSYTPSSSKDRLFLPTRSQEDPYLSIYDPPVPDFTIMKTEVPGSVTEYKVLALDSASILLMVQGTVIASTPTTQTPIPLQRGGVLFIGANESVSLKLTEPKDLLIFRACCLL

[17] = molecular target: T4, Mannose-6-phosphate isomerase; test: MPI enzyme activity inhibition – biochemical, fluorescence intensity, coupled assay, primary screen (AID 1209)
H4 = test: Luminescence Cell-Based Dose Response HTS to Identify Activators of 5'UTR Stem-Loop Driven Prion Protein mRNA Translation in H4 Neuroglioblastoma Cells. [Related pubchem assays: 1829 (Project Summary), 1814 (Primary HTS)]; type: functional; settings: Homo sapiens
INS1 = test: INS-1E survival protection against cytokine death – cell-based, luminescence, retest, dose response (AID 449756); type: functional; settings: Rattus norvegicus;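 note: cell death triggered by IL-1 beta plus TNF-alpha plus IFN-gamma mixture; protective hits raise ATP signal compared with cytokine alone wells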
[18] = Luminescence Cell-Based Dose Response HTS to Identify Activators of Luciferase Translation or Activity in H4 […] Cells. [Related pubchem assays: 1829 (Project Summary), 1814 (Primary HTS)]; type: functional
[19] = Luminescence Cell-Based Dose Confirmation HTS to Identify Activators of 5'UTR Stem-Loop Driven Alpha-Synuclein mRNA Translation in H4 Neuroglioblastoma Cells. [Related pubchem assays: 1829 (Project Summary), 1814 (Primary HTS)]; type: functional
[20] = viability loss of HPDE-C7K cells – cell-based, fluorescence, HTS, primary screen (AID 431); type: functional; settings: Homo sapiens
[21] = HPDE-C7 pancreatic duct cell viability loss – fluorescence, HTS (AID 430); type: functional, cell-based; settings: Homo sapiens

Compound: CCOc1ccc(NC(=O)c2ccc(CNc3c(N4CCCC4)c(=O)c3=O)cc2)cc1
- IC50 (Prothrombin): > 50 µM (not active)

Compound: CCCC[n+]1c(C=C2C=Cc3ccccc3N2CC)sc2ccccc21
- IC50 (HEK293 [1]): 1.96 µM (active)
- EC50 [2]: < 0.1 µM (active)
- EC50 (cells [3]): 0.058 µM (active)
- IC50 [4]: > 80 µM (inactive)
- EC50 (HEK293 [5]): 2.17 µM (active)
- EC50 [6]: > 60 µM (not active)
- EC50 [7]: 7.5 µM (active)
- IC50 (HEK293 [8]): 11.1 µM (active)

Compound: Cc1ccc(O)c(NC2=C(Cl)C(=O)N(Cc3ccccc3)C2=O)c1
- IC50 [9]: 3.01 µM (not active)
- EC50 [2]: 4.37 µM (active)
- IC50 [10]: 50 µM (inactive)
- IC50 (Genome polyprotein): > 100 µM (active)
- EC50 [6]: > 60 µM (inconclusive)

Compound: Cc1ccc(-c2noc(CN3CCC(C(N)=O)CC3)n2)cc1
- EC50 [11]: > 53 µM (inactive)
- IC50 (Prothrombin): > 50 µM (not active)

Compound: CC(C)(C)c1ccccc1OCCOCCN1CCCCCC1
- EC50 [2]: 0.651 µM (active)
- IC50 (cells [12]): > 50 µM (active)
- EC50 [6]: > 60 µM (inconclusive)
- CC50 [13]: 27.6 µM (active)

Compound: CC[n+]1c(C)sc2c(C)cc(C)cc21
- IC50 [14]: > 100 µM (inactive)
- IC50 [15]: > 100 µM (not active)
- IC50 [16]: > 50 µM (not active)
- IC50 [17]: 10.8 µM (active)

Compound: O=C1/C(=C/c2ccc(N3CCOCC3)o2)S/C(=N\c2ccccc2)N1CCc1c[nH]c2ccccc12
- EC50 (H4): > 120 µM (not active)
- AC50 (INS1): 17.2 µM (active)
- EC50 [18]: > 120 µM (not active)
- IC50 [4]: > 80 µM (inactive)
- EC50 [19]: 13 µM (active)

Compound: COc1ccc(NC(=O)c2cc(-c3cc(C)ccc3O)[nH]n2)cc1Cl
- EC50 [20]: > 20 µM (not active)
- EC50 [21]: > 20 µM (not active)

Compound: Cc1nnc(=O)[nH]c1NCc1ccco1
- IC50 [10]: > 64 µM (inactive)
